According to patent US20170057955A1, “Pyridopyrimidinone Compounds for Modulating the Catalytic Activity of Histone Lysine Demethylases (KDMs)” (Dong-A Socio Holdings Co., Ltd., priority 2015, published 2017):

Molecular target: T1, Recombinant human JARID1B/KDM5B (Homo sapiens, UniProt Q9UGL1)
T1 construct: purchased Active Motif 31432; host or cells: Sf9 insect cells
Assay: LANCE Ultra TR-FRET JARID1B (KDM5B) demethylase inhibition assay
Format: biochemical
Conditions: 0.1 uM of test-compounds, FLAG-JARID1B, 500 nM biotinylated H3K4me3 peptide substrate, 30 min at room temperature
Description: FLAG-tagged JARID1B (also known as KDM5B) protein was screened against 49 compounds. For this compound screening, LANCE Ultra time-resolved fluorescence resonance energy transfer (TR-FRET) assay was employed using a europoium (Eu)-labeled antibody that can specifically recognize mono- or dimethylated peptides (H3K4me2/1) and ULight-streptavidin (ULight-SA), a small molecule fluorescent dye. When irradiated at 340 nm, the energy from the Eu donor is transferred to the ULight acceptor dye which, in turn, emits light primarily at 665 nm. The ratio between the intensity of primary emission at 665 nm and that of secondary emission at […] was used to quantify the level of lysine methylation. As JARID1B removes more methyl moieties from tri-methylated substrate peptides (H3K4me3), the ratio increases until the enzyme reaction is terminated. In case, therefore, the compounds disrupt the enzymatic activity completely, the ratio becomes equal to a background value.
Recombinant human JARID1B/KDM5B (accession number NP_006609) of molecular weight 179.9 KDa was expressed in Sf9 insect cells and contains an N-terminal FLAG tag. The enzyme was obtained from Active Motif (Catalog No. 31432). The tri-methylated histone substrate peptide of purity greater than 95% was a synthetic peptide in which the first 21 amino acids correspond to the human histone H3 sequence with three extra amino acids and a biotin motif (GGK-biotin) linked to the C-terminus [sequence: ART-K(Me3)-QTARKSTGGKAPRKQLA-GGK-biotin-OH], (AnaSpec, Fremont, Calif. Catalog. No. ANA-1413). The reference inhibitor compound tranylcypromine (or trans-2-phenylcyclopropylamine hydrochloride, also known as, 2-PCPA) was purchased from Sigma (St. Louis, Mo. Cat. no. P8511). ULight-labeled streptavidin (ULight-SA, Catalog no. TRF0102), Eu-W1024-labeled anti-methyl-Histone H3 Lysine 4 (H3K4me1-2) Antibody (Catalog no. TRF0402), and LANCE detection buffer 10× (Catalog no. CR97-100) were obtained from PerkinElmer (Montreal, Quebec, Canada). The TR-FRET experiments were carried out in white, low-volume 384-wellplates purchased from PerkinElmer (ProxiPlate_-384 Plus, Catalog no. 6008280).
The TR-FRET signal was measured in the presence both of the bio-H3K4me3 peptide and FLAG-JARID1B by detecting any H3K4me2/1 peptide produced in the assay system. Assays using only the bio-H3K4me2 peptide were served as a positive control. Robust enzymatic progressions were observed by using JARID1B at concentrations ranging from 10 to 30 nM. In a typical TR-FRET experiment, JARID1B was pre-incubated with or without 0.1 uM of test-compounds (containing 1% DMSO final) for 5 min. The enzymatic reactions were initiated by the addition of 500 nM biotinylated H3K4me3 peptide substrate plus 500 uM of 2-OG 25 uM Fe(II) and 2 mM ascorbate. The reaction buffer also contained 50 mM Hepes (pH7.5), 0.01% (v/v) Tween 20, and 50 mM NaCl. The reaction mixture was incubated for 30 min at room temperature before reading on an EnVision plate reader (PerkinElmer, Waltham, Mass.).

T1 sequence (Q9UGL1 whole entry): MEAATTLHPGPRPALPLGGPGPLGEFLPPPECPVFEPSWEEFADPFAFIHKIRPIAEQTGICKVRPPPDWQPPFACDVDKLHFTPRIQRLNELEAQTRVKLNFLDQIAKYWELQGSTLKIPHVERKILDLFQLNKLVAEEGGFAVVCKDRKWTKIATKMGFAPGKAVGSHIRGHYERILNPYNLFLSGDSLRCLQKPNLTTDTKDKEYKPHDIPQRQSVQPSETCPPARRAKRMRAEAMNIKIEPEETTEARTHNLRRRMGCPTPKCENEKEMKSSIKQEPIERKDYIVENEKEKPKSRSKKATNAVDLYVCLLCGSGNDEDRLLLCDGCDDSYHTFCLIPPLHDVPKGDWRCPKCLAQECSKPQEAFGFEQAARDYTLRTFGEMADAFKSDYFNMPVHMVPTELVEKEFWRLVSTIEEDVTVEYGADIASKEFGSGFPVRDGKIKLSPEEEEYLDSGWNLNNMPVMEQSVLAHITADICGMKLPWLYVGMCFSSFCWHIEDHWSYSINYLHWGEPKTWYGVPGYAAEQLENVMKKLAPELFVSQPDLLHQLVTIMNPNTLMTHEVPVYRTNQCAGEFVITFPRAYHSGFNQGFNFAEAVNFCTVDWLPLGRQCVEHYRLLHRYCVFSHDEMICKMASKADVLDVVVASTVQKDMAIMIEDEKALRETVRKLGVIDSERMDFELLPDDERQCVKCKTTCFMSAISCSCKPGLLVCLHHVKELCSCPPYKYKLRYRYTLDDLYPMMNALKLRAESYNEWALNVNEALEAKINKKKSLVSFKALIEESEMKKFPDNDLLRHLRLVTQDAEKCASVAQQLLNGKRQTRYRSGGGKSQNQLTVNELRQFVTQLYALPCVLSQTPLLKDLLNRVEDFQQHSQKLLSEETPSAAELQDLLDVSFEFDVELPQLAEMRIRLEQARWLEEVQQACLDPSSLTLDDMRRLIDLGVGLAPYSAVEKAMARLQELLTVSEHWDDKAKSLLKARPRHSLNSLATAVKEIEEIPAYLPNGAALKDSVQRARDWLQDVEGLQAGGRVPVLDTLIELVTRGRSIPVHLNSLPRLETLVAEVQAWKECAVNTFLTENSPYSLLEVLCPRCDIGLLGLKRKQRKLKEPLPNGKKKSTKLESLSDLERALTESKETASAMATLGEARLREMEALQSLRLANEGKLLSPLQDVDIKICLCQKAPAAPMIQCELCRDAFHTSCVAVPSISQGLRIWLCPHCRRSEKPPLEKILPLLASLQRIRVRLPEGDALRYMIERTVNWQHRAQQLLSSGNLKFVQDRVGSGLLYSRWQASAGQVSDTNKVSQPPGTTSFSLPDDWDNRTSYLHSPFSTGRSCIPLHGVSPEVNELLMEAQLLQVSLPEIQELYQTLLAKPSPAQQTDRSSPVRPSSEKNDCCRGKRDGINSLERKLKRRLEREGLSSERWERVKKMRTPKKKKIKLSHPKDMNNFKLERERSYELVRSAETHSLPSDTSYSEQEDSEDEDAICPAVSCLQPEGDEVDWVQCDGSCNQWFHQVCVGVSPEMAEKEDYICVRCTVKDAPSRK

Structure (SMILES)	inhibition at 0.1 µM
Nc1nn(-c2nccc3c(=O)[nH]cnc23)cc1-c1ccc(F)cc1 [Compound 23, 8-(3-amino-4-(4-fluorophenyl)-1H-pyrazol-1-yl)pyrido[3,4-d]pyrimidin-4(3H)-one]	≥ 50%
Nc1nn(-c2nccc3c(=O)[nH]cnc23)cc1-c1cnn(CCO)c1 [Compound 26, 8-(3-amino-1′-(2-hydroxyethyl)-1H,1′H-[4,4′-bipyrazol]-1-yl)pyrido[3,4-d]pyrimidin-4(3H)-one]	20 to 50%
CCOC(=O)c1nc(-c2nccc3c(=O)[nH]c(COc4ccc(F)c(Cl)c4)nc23)cs1 [Compound 122, ethyl 4-(2-((3-chloro-4-fluorophenoxy)methyl)-4-oxo-3,4-dihydropyrido[3,4-d]pyrimidin-8-yl)thiazole-2-carboxylate]	< 20%
Cn1cnc(-c2nccc3c(=O)[nH]c(COc4ccc(Cc5ccccc5)cc4)nc23)c1 [Compound 70, 2-((4-benzylphenoxy)methyl)-8-(1-methyl-1H-imidazol-4-yl)pyrido[3,4-d]pyrimidin-4(3H)-one]	20 to 50%
CCOC(=O)c1nc(-c2nccc3c(=O)[nH]cnc23)cs1 [Compound 62, ethyl 4-(4-oxo-3,4-dihydropyrido[3,4-d]pyrimidin-8-yl)thiazole-2-carboxylate]	< 20%
Nc1nn(-c2nccc3c(=O)[nH]cnc23)cc1-c1cnn(CCN2CCCC2)c1 [Compound 27, 8-(3-amino-1′-(2-(pyrrolidin-1-yl)ethyl)-1H,1′H-[4,4′-bipyrazol]-1-yl)pyrido[3,4-d]pyrimidin-4(3H)-one]	20 to 50%
O=c1[nH]cnc2c(-c3csc(NC4CCNCC4)n3)nccc12 [Compound 49, 8-(2-(piperidin-4-ylamino)thiazol-4-yl)pyrido[3,4-d]pyrimidin-4(3H)-one]	20 to 50%
O=c1[nH]c(COc2ccc(F)c(Cl)c2)nc2c(-c3csc(NCC4CCN(C5CCCC5)CC4)n3)nccc12 [Compound 98, 2-((3-chloro-4-fluorophenoxy)methyl)-8-(2-(((1-cyclopentylpiperidin-4-yl)methyl)amino)thiazol-4-yl)pyrido[3,4-d]pyrimidin-4(3H)-one]	20 to 50%
C[C@H](O)CNc1nc(-c2nccc3c(=O)[nH]cnc23)cs1 [Compound 39, (S)-8-(2-((2-hydroxypropyl)amino)thiazol-4-yl)pyrido[3,4-d]pyrimidin-4(3H)-one]	≥ 50%
O=c1[nH]cnc2c(-c3csc(NCC4CCN(Cc5ccccc5)CC4)n3)nccc12 [Compound 52, 8-(2-(((1-benzylpiperidin-4-yl)methyl)amino)thiazol-4-yl)pyrido[3,4-d]pyrimidin-4(3H)-one]	≥ 50%
Nc1ncc(-c2nccc3c(=O)[nH]c(COc4ccc(F)c(Cl)c4)nc23)s1 [Compound 75, 8-(2-aminothiazol-5-yl)-2-((3-chloro-4-fluorophenoxy)methyl) pyrido[3,4-d]pyrimidin-4(3H)-one]	< 20%
O=C(Nc1nc(-c2nccc3c(=O)[nH]c(COc4ccc(F)c(Cl)c4)nc23)cs1)c1ccccc1 [Compound 124, N-(4-(2-((3-chloro-4-fluorophenoxy)methyl)-4-oxo-3,4-dihydropyrido[3,4-d]pyrimidin-8-yl)thiazol-2-yl)benzamide]	< 20%
CC(CNc1nc(-c2nccc3c(=O)[nH]c(COc4ccc(F)c(Cl)c4)nc23)cs1)Oc1ccccc1 (centres unmarked) [Compound 123, 2-((3-chloro-4-fluorophenoxy)methyl)-8-(2-((2-phenoxypropyl)amino)thiazol-4-yl)pyrido[3,4-d]pyrimidin-4(3H)-one]	< 20%
CN1CCN(Cc2ccc(-c3cn(-c4nccc5c(=O)[nH]cnc45)nc3N)cc2)CC1 [Compound 33, 8-(3-amino-4-(4-((4-methylpiperazin-1-yl)methyl)phenyl)-1H-pyrazol-1-yl)pyrido[3,4-d]pyrimidin-4(3H)-one]	20 to 50%
CCC(O)CNc1nc(-c2nccc3c(=O)[nH]c(COc4ccc(F)c(Cl)c4)nc23)cs1 (centres unmarked) [Compound 95, 2-((3-chloro-4-fluorophenoxy)methyl)-8-(2-((2-hydroxybutyl)amino)thiazol-4-yl)pyrido[3,4-d]pyrimidin-4(3H)-one]	20 to 50%
Nc1nn(-c2nccc3c(=O)[nH]cnc23)cc1-c1ccc(CN2CCCC2)cc1 [Compound 34, 8-(3-amino-4-(4-(pyrrolidin-1-ylmethyl)phenyl)-1H-pyrazol-1-yl)pyrido[3,4-d]pyrimidin-4(3H)-one]	20 to 50%
O=c1[nH]cnc2c(-c3csc(NCCCO)n3)nccc12 [Compound 46, 8-(2-((3-hydroxypropyl)amino)thiazol-4-yl)pyrido[3,4-d]pyrimidin-4(3H)-one]	20 to 50%
O=c1[nH]cnc2c(-n3cc(-c4ccccc4Oc4ccccc4)cn3)nccc12 [Compound 10, 8-(4-(2-phenoxyphenyl)-1H-pyrazol-1-yl)pyrido[3,4-d]pyrimidin-4(3H)-one]	< 20%
Nc1ncc(-c2nccc3c(=O)[nH]c(COc4ccc(Cc5ccccc5)cc4)nc23)s1 [Compound 68, 8-(2-aminothiazol-5-yl)-2-((4-benzylphenoxy)methyl) pyrido[3,4-d]pyrimidin-4(3H)-one]	< 20%
Nc1nn(-c2nccc3c(=O)[nH]cnc23)cc1-c1cnn(CCN2CCOCC2)c1 [Compound 29, 8-(3-amino-1′-(2-morpholinoethyl)-1H,1′H-[4,4′-bipyrazol]-1-yl)pyrido[3,4-d]pyrimidin-4(3H)-one]	20 to 50%

More lines, now with the values ahead:

inhibition at 0.1 µM	Structure (SMILES)
< 20%	CN(C)CCCNc1nc(-c2nccc3c(=O)[nH]c(COCc4ccccc4)nc23)cs1 [Compound 150, 2-((benzyloxy)methyl)-8-(2-((3-(dimethylamino)propyl)amino)thiazol-4-yl)pyrido[3,4-d]pyrimidin-4(3H)-one]
20 to 50%	CN(C)CCNc1nc(-c2nccc3c(=O)[nH]c(CCc4ccccc4)nc23)cs1 [Compound 162, 8-(2-((2-(dimethylamino)ethyl)amino)thiazol-4-yl)-2-phenethylpyrido[3,4-d]pyrimidin-4(3H)-one]
20 to 50%	O=c1[nH]c(COc2cc(Cl)cc(Cl)c2)nc2c(-c3csc(NCCO)n3)nccc12 [Compound 134, 2-((3,5-dichlorophenoxy)methyl)-8-(2-((2-hydroxyethyl)amino)thiazol-4-yl)pyrido[3,4-d]pyrimidin-4(3H)-one]
≥ 50%	CN(C)CCNc1nc(-c2nccc3c(=O)[nH]c(COc4ccc(F)cc4)nc23)cs1 [Compound 126, 8-(2-((2-(dimethylamino)ethyl)amino)thiazol-4-yl)-2-((4-fluorophenoxy)methyl) pyrido[3,4-d]pyrimidin-4(3H)-one]
20 to 50%	Nc1nc(-c2nccc3c(=O)[nH]c(CCCc4ccccc4)nc23)cs1 [Compound 166, 8-(2-aminothiazol-4-yl)-2-(3-phenylpropyl)pyrido[3,4-d]pyrimidin-4(3H)-one]
20 to 50%	CN1CCC(Nc2nc(-c3nccc4c(=O)[nH]c(COCc5ccccc5)nc34)cs2)CC1 [Compound 155, 2-((benzyloxy)methyl)-8-(2-((1-methylpiperidin-4-yl)amino)thiazol-4-yl)pyrido[3,4-d]pyrimidin-4(3H)-one]
≥ 50%	O=c1[nH]c(COc2ccc(F)cc2)nc2c(-c3csc(NCCO)n3)nccc12 [Compound 125, 2-((4-fluorophenoxy)methyl)-8-(2-((2-hydroxyethyl)amino)thiazol-4-yl)pyrido[3,4-d]pyrimidin-4(3H)-one]
20 to 50%	O=c1[nH]c(COc2ccccc2Cl)nc2c(-c3csc(NCCO)n3)nccc12 [Compound 132, 2-((2-chlorophenoxy)methyl)-8-(2-((2-hydroxyethyl)amino)thiazol-4-yl)pyrido[3,4-d]pyrimidin-4(3H)-one]
20 to 50%	O=c1[nH]c(CCc2ccccc2)nc2c(-c3csc(NCCO)n3)nccc12 [Compound 161, 8-(2-((2-hydroxyethyl)amino)thiazol-4-yl)-2-phenethylpyrido[3,4-d]pyrimidin-4(3H)-one]
